Results from ChEMBL document CHEMBL5058646 (2022).

Biological target: B-cell lymphoma 6 protein (Homo sapiens, UniProt P41182)
Test: TR-FRET; call rule not given here

- IC50: 21 µM (not active)
SMILES: C[C@@H]1CN(c2nccc(Nc3ccc4c(c3)n(CCC(C)(C)O)c(=O)n4C)n2)C[C@H](C)C1(F)F
